Measured values reported in patent US8425997B2, “Cobalt bearing polymeric compositions” (Umicore, priority 2008, dated 2013).

Test: Aqueous solubility (leaching) of Co, OECD-105 flask method
Format: physicochemical
Method: Experiments are performed to determine the aqueous solubility of the Co in the invented polymers. These tests are relevant as indicators for the bioavailability of Co.
[…] The leaching tests are conducted according to the OECD-105 standard flask method, as described in the OECD Guideline for the Testing of Chemicals, adopted on 27 Jul. 1995, and in the Official Journal of the European Communities L 383 A, 54-62 (1992).
The solubility of 3 typical polymers according to the invention is compared to that of 3 commercial products.

## Co-acetylacetonate
solvent: 0.9% NaCl
  Solubility of Co in 0.9% NaCl solution, Co: 1400 µg/mL
solvent: water
  Solubility of Co in water, Co: 1600 µg/mL
